Measured values from ChEMBL document CHEMBL4145634, “Discovery of Janus Kinase 2 (JAK2) and Histone Deacetylase (HDAC) Dual Inhibitors as a Novel Strategy for the Combinational Treatment of Leukemia and Invasive Fungal Infections” (J Med Chem, 2018).

Assays:
HEL [1] = assay: Cell cycle arrest in human HEL cells assessed as accumulation at S phase at 10 uM after 48 hrs propidium iodide staining based flow cytometry relative to control; assay type: functional
Candida albicans = assay: Antibiofilm activity against FLC resistant Candida albicans 0304103 assessed as inhibition of biofilm formation pre-incubated with 64 ug/ml FLC for 90 mins followed by further incubation with compound at 16 ug/ml for 24 hrs by XTT reduction assay; assay type: functional
HEL [2] = assay: Antitumor activity against human HEL cells xenografted in BALB/C nude mouse assessed as tumor growth inhibition at 10 mg/kg, ip bid treated for 21 consecutive days relative to control; assay type: functional; settings: read-out: TGI
HEL [3] = assay: Antitumor activity against human HEL cells xenografted in BALB/C nude mouse assessed as tumor growth at 10 mg/kg, ip bid treated for 21 consecutive days relative to control; assay type: functional
Rattus norvegicus = assay: Clearance in Sprague-Dawley rat at 10 mg/kg, ip by LC-MS/MS analysis; assay type: ADME, organism-based; settings: in vivo
HEL [4] = assay: Antitumor activity in human HEL cells xenografted in SCID mouse assessed as increase in mouse survival at 10 mg/kg, ip qd measured on day 32; assay type: functional; settings: 768 h
[5] = AUC (0 to infinity) in Sprague-Dawley rat at 10 mg/kg, ip by LC-MS/MS analysis; assay type: ADME, organism-based; design: dose 10 mg/kg, route intraperitoneal, time infinity; settings: in vivo
[6] = Half life in Sprague-Dawley rat at 10 mg/kg, ip by LC-MS/MS analysis; assay type: ADME, organism-based; settings: in vivo
[7] = Tmax in Sprague-Dawley rat at 10 mg/kg, ip by LC-MS/MS analysis; assay type: ADME, organism-based; settings: in vivo
[8] = Cmax in Sprague-Dawley rat at 10 mg/kg, ip by LC-MS/MS analysis; assay type: ADME, organism-based; design: dose 10 mg/kg, route intraperitoneal; settings: in vivo
HEL [9] = assay: Cell cycle arrest in human HEL cells assessed as accumulation at S phase at 1 uM after 48 hrs propidium iodide staining based flow cytometry relative to control; assay type: functional

Structure (SMILES) | Activity (HEL [1]) | inhibition (INH) (Candida albicans) | inhibition in vivo at 10 mg/kg (HEL [2]) | T/C (HEL [3]) | clearance (Rattus norvegicus) | survival at 10 mg/kg (HEL [4]) | AUC(0-inf) [5] | half-life [6] | Tmax [7] | Cmax [8] | Activity (HEL [9])
O=C(NO)c1ccc(-c2ccnc(Nc3ccc(N4CCOCC4)cc3)n2)cc1 | 48.68% | 30% | 59.9% | 41.1% | – | – | – | – | – | – | –
CS(=O)(=O)Nc1ccc(-c2ccnc(Nc3ccc(N4CCC(C(=O)Nc5ccc(/C=C/C(=O)NO)cc5)CC4)cc3)n2)cc1 | – | 30% | – | – | 37.4 mL/min/kg | 37.5% | 4470 ng·h/mL | 5.14 h | 0.5 h | 1600 ng/mL | –
CS(=O)(=O)Nc1ccc(-c2ccnc(Nc3ccc(N4CCC(C(=O)NCCCCCCCC(=O)NO)CC4)cc3)n2)cc1 | – | – | – | – | – | – | – | – | – | – | 25.56%
